Data reported in patent US8889370B2, “Method of determining inhibitors of coagulation” (Siemens Healthcare Diagnostics Products GmbH, priority 2010, dated 2014).
Read-outs that look alike come from different tables or passages of the source.

Molecular target: T1, bovine thrombin (Bos taurus, UniProt P00735)
T1 construct: a lyophilized thrombin reagent consisting of bovine thrombin; purchased Siemens Healthcare Diagnostics (hirudin activity assay, thrombin reagent)
Test: Determination of the thrombin binding constant (Ki) of peptide aldehyde ligands, chromogenic assay with hirudin activity assay reagents, Dixon plot
Format: biochemical
Procedure: The kinetic data of the peptide aldehyde ligands were determined in chromogenic assay formats by measuring the rate of hydrolysis of chromogenic peptide substrates which compete with the peptide aldehyde ligands for binding to the active site of the particular enzyme, at various substrate concentrations and peptide aldehyde-ligand concentrations. The binding constant (Ki) was determined by a known method (Dixon, M., 1953, Biochem J, 55, 170-171).
The thrombin binding constant was determined using the reagents of the hirudin activity assay from Siemens Healthcare Diagnostics. The hirudin activity assay comprises a lyophilized thrombin reagent consisting of bovine thrombin, a heparin inhibitor and aprotinin, a lyophilized chromogenic substrate reagent with a concentration of 4 mmol/l tos-Gly-Pro-Arg-ANBA-IPA (tosylglycyl-L-propyl-arginyl-5-amino-2-nitrobenzoyliso-propylamide) after reconstitution. The thrombin reagent was reconstituted in buffer solution (trishydroxymethylamino-methane, NaCl, pH 8.2). Dilutions of the substrate reagent were prepared with deionized water. The peptide aldehyde ligands prepared according to example 1 were dissolved in water and used as sample. The B-r-G-R—H ligand was used in a concentration range from 26.1 to 0.815 μM. The B-f-P—R—H ligand was used in a concentration range from 26.1 to 0 μM. The assays were carried out automatically in a BCS® XP coagulation analyzer (Siemens Healthcare Diagnostics, Marburg, Germany).
A reaction mix was mixed together as follows:
30 μl of sample (peptide aldehyde ligand B-r-G-R—H or B-f-P—R—H),
150 μl of thrombin reagent,
50 μl of chromogenic substrate reagent (tos-Gly-Pro-Arg-ABNA-IPA).
The reaction rate in mE/min was determined on the basis of the increase in optical density of the reaction mix at a wavelength of 405 nm. For this, the optical density of the reaction mixes was determined in time intervals of from 15 to 40 seconds for the B-f-P—R—H peptide aldehyde ligand or 5-16 seconds for the B-r-G-R—H peptide aldehyde ligand.
Reversibly and irreversibly binding ligands can be distinguished by their reaction kinetics. Plotting 1/v, where v is the reaction rate, as a function of the ligand concentration (i) at a constant concentration (S) of a cleavable substrate produces a line. When using two or more different substrate concentrations (S1, S2 . . . SN), said lines intersect at a single point. The x axis value of this point corresponds to −Ki, with Ki corresponding to the binding constant, see, for example, Klebe, G., Wirkstoffdesign, 2nd edition, Spektrum Akademischer Verlag, Heidelberg, Germany, 2009, pages 52-62 and Dixon, M., 1953, Biochem J, 55, 170-171. With an irreversible inhibition, the curves meet at a single point on the x axis, which again corresponds to −Ki.

SMILES: N=C(N)NCCC[C@@H](C=O)NC(=O)CNC(=O)[C@@H](CCCNC(=N)N)NC(=O)CCC(=O)NCCCOCCOCCOCCCNC(=O)CCCC[C@@H]1SC[C@@H]2NC(=O)N[C@@H]21 [B-r-G-R-H, biotinyl-Ttds-D-Arg-Gly-Arg-H]
- 1/Reaction rate (CB-r-G-R-H 0.81522 μM, Csubstrate = 0.5 mM): 0.516 min/E
- 1/Reaction rate (CB-r-G-R-H 0.81522 μM, Csubstrate = 2 mM): 0.3884 min/E
- 1/Reaction rate (CB-r-G-R-H 0.81522 μM, Csubstrate = 4 mM): 0.3756 min/E
- 1/Reaction rate (CB-r-G-R-H 1.30435 μM, Csubstrate = 0.5 mM): 0.5211 min/E
- 1/Reaction rate (CB-r-G-R-H 1.30435 μM, Csubstrate = 2 mM): 0.3902 min/E
- 1/Reaction rate (CB-r-G-R-H 1.30435 μM, Csubstrate = 4 mM): 0.3758 min/E
- 1/Reaction rate (CB-r-G-R-H 1.63043 μM, Csubstrate = 0.5 mM): 0.5224 min/E
- 1/Reaction rate (CB-r-G-R-H 1.63043 μM, Csubstrate = 2 mM): 0.3894 min/E
- 1/Reaction rate (CB-r-G-R-H 1.63043 μM, Csubstrate = 4 mM): 0.3748 min/E
- 1/Reaction rate (CB-r-G-R-H 2.60870 μM, Csubstrate = 0.5 mM): 0.5283 min/E
- 1/Reaction rate (CB-r-G-R-H 2.60870 μM, Csubstrate = 2 mM): 0.3876 min/E
- 1/Reaction rate (CB-r-G-R-H 2.60870 μM, Csubstrate = 4 mM): 0.373 min/E
- 1/Reaction rate (CB-r-G-R-H 3.26087 μM, Csubstrate = 0.5 mM): 0.5385 min/E
- 1/Reaction rate (CB-r-G-R-H 3.26087 μM, Csubstrate = 2 mM): 0.3968 min/E
- 1/Reaction rate (CB-r-G-R-H 3.26087 μM, Csubstrate = 4 mM): 0.3807 min/E
- 1/Reaction rate (CB-r-G-R-H 5.21739 μM, Csubstrate = 0.5 mM): 0.5408 min/E
- 1/Reaction rate (CB-r-G-R-H 5.21739 μM, Csubstrate = 2 mM): 0.3946 min/E
- 1/Reaction rate (CB-r-G-R-H 5.21739 μM, Csubstrate = 4 mM): 0.3761 min/E
- 1/Reaction rate (CB-r-G-R-H 6.52174 μM, Csubstrate = 0.5 mM): 0.5637 min/E
- 1/Reaction rate (CB-r-G-R-H 6.52174 μM, Csubstrate = 2 mM): 0.4008 min/E
- 1/Reaction rate (CB-r-G-R-H 6.52174 μM, Csubstrate = 4 mM): 0.3841 min/E
- 1/Reaction rate (CB-r-G-R-H 9.78261 μM, Csubstrate = 0.5 mM): 0.5802 min/E
- 1/Reaction rate (CB-r-G-R-H 9.78261 μM, Csubstrate = 2 mM): 0.4106 min/E
- 1/Reaction rate (CB-r-G-R-H 9.78261 μM, Csubstrate = 4 mM): 0.3805 min/E
- 1/Reaction rate (CB-r-G-R-H 13.04348 μM, Csubstrate = 0.5 mM): 0.609 min/E
- 1/Reaction rate (CB-r-G-R-H 13.04348 μM, Csubstrate = 2 mM): 0.4032 min/E
- 1/Reaction rate (CB-r-G-R-H 13.04348 μM, Csubstrate = 4 mM): 0.3885 min/E
- 1/Reaction rate (CB-r-G-R-H 16.30435 μM, Csubstrate = 0.5 mM): 0.6264 min/E
- 1/Reaction rate (CB-r-G-R-H 16.30435 μM, Csubstrate = 2 mM): 0.414 min/E
- 1/Reaction rate (CB-r-G-R-H 16.30435 μM, Csubstrate = 4 mM): 0.3865 min/E
- 1/Reaction rate (CB-r-G-R-H 26.08696 μM, Csubstrate = 0.5 mM): 0.6903 min/E
- 1/Reaction rate (CB-r-G-R-H 26.08696 μM, Csubstrate = 2 mM): 0.4285 min/E
- 1/Reaction rate (CB-r-G-R-H 26.08696 μM, Csubstrate = 4 mM): 0.395 min/E
- Intersect of regression curve 1/reaction rate vs ligand concentration (Csubstrate 0.5 mM): 0.5122 min/E
- Slope of regression curve 1/reaction rate vs ligand concentration (Csubstrate 0.5 mM): 0.006964 min/E μM
- Intersect of regression curve 1/reaction rate vs ligand concentration (Csubstrate 2 mM): 0.3880 min/E
- Slope of regression curve 1/reaction rate vs ligand concentration (Csubstrate 2 mM): 0.001572 min/E μM
- Intersect of regression curve 1/reaction rate vs ligand concentration (Csubstrate 4 mM): 0.3746 min/E
- Slope of regression curve 1/reaction rate vs ligand concentration (Csubstrate 4 mM): 0.000805 min/E μM
- Ki (average of three Ki values, read-out: KiM average thrombin binding constant): 20.9 µM
- Ki (intersection of regression curves Csubstrate 2 and 0.5 mM, read-out: Ki2&3 thrombin binding constant): 23 µM
- Ki (intersection of regression curves Csubstrate 4 and 0.5 mM, read-out: Ki1&3 thrombin binding constant): 22.3 µM
- Ki (intersection of regression curves Csubstrate 4 and 2 mM, read-out: Ki1&2 thrombin binding constant): 17.4 µM
- binding of the peptide aldehyde with thrombin (reversible or irreversible) (intersections of regression curves not on the x axis): reversible
